Drawing on article PMC12370193, “An L-fucose-responsive transcription factor cross-regulates the expression of a diverse array of carbohydrate-active enzymes in Trichoderma reesei” (PLOS Genetics, 2025), this text covers Km for one compound.

The assay deals with T1, FDH1 (Trichoderma reesei, UniProt G0RGU7).
T1 construct: gene TRIREDRAFT_60517; full-length re-annotated 302-aa protein (database gene model may differ; S1 Data); codon-optimized; pET-32a(+), E. coli BL21(DE3); N-terminal His6 tag
Put plainly: NADH formation at […] nm, initial rates, Hill equation fit. It is filed as biochemical. To be noted: NAD+ co-substrate (0.5 mM in standard assay), 50 mM Tris-HCl pH 9.0, 30 °C.

What is called Km is the concentration of substrate that gives half-maximal velocity.

T1 sequence (G0RGU7 entry or part of it): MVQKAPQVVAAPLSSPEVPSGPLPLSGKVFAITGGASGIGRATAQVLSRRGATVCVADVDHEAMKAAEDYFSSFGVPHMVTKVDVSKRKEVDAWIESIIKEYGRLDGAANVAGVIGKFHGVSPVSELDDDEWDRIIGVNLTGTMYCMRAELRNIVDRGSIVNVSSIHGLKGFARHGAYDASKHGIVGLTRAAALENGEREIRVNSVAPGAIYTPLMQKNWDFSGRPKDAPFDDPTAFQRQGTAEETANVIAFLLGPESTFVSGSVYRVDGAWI

As to `C[C@@H]1OC(O)[C@@H](O)[C@H](O)[C@@H]1O` (stereo partly drawn) [L-fucose, 6-deoxy-L-galactose], the Km turned out to be 546 µM.
